Data as given in PubChem BioAssay AID248 (DTP/NCI, 2004).
Where “and” joins values, the source holds several entries; their conditions need not be identical. Identical values can stand only once. Toxic doses and inconclusive results are not listed.

Tested on: L1210 leukemia ip in BDF1 mice, survival T/C
Assay: NCI In Vivo Anticancer Drug Screen. Data for tumor model L1210 Leukemia (intraperitoneal) in B6D2F1 (BDF1) mice
Conditions: endpoint: mean survival time, higher = longer survival
How it was run: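 Read-out is survival time, reported as the treated-group measurement over the vehicle-control measurement.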

## CC[C@@]1(O)C(=O)OCc2c1cc1n(c2=O)Cc2cc3ccccc3nc2-1
dose: 0.05 mg/kg/injection, schedule: Q01DX Z (ip), vehicle: carboxymethylcellulose (CMC)
  T/C: 94 % of control
dose: 0.1 mg/kg/injection, schedule: Q01DX Z (ip), vehicle: carboxymethylcellulose (CMC)
  T/C: 97 % of control
dose: 0.12 mg/kg/injection, schedule: Q01DX009 (ip), vehicle: saline
  T/C: 105 % of control and 108 % of control
dose: 0.12 mg/kg/injection, schedule: Q#A X Z (ip), vehicle: saline
  T/C: 122 % of control
dose: 0.13 mg/kg/injection, schedule: Q01DX Z (ip), vehicle: water
  T/C: 105 % of control
dose: 0.2 mg/kg/injection, schedule: Q01DX Z (ip), vehicle: saline
  T/C: 118 % of control
dose: 0.22 mg/kg/injection, schedule: Q01DX Z (ip), vehicle: water
  T/C: 103 % of control
dose: 0.22 mg/kg/injection, schedule: Q03DX Z (ip), vehicle: saline
  T/C: 103 % of control
dose: 0.25 mg/kg/injection, schedule: Q01DX006 (iv), vehicle: saline
  T/C: 103 % of control
dose: 0.25 mg/kg/injection, schedule: Q01DX009 (ip), vehicle: saline
  T/C: 94 % of control
dose: 0.25 mg/kg/injection, schedule: Q01DX Z (im), vehicle: saline
  T/C: 108 % of control
dose: 0.25 mg/kg/injection, schedule: Q01DX Z (sc), vehicle: saline
  T/C: 113 % of control
dose: 0.25 mg/kg/injection, schedule: Q## X Z (ip), vehicle: saline
  T/C: 106 % of control
dose: 0.25 mg/kg/injection, schedule: Q#A X Z (ip), vehicle: saline
  T/C: 154 % of control
dose: 0.33 mg/kg/injection, schedule: Q03DX Z (ip), vehicle: saline
  T/C: 111 % of control
dose: 0.36 mg/kg/injection, schedule: Q01DX Z (ip), vehicle: water
  T/C: 116 % of control
dose: 0.5 mg/kg/injection, schedule: Q01DX001 (ip), vehicle: saline
  T/C: 107 % of control
dose: 0.5 mg/kg/injection, schedule: Q01DX006 (iv), vehicle: saline
  T/C: 116 % of control
dose: 0.5 mg/kg/injection, schedule: Q01DX009 (ip), vehicle: saline
  T/C: 111 % of control
dose: 0.5 mg/kg/injection, schedule: Q01DX Z (ip), vehicle: carboxymethylcellulose (CMC)
  T/C: 163 % of control
dose: 0.5 mg/kg/injection, schedule: Q01DX Z (oral), vehicle: saline
  T/C: 120 % of control
dose: 0.5 mg/kg/injection, schedule: Q01DX Z (sc), vehicle: saline
  T/C: 118 % of control
dose: 0.5 mg/kg/injection, schedule: Q03DX Z (ip), vehicle: saline
  T/C: 108 % of control
dose: 0.6 mg/kg/injection, schedule: Q01DX Z (ip), vehicle: water
  T/C: 156 % of control
dose: 0.75 mg/kg/injection, schedule: Q01DX009 (ip), vehicle: saline
  T/C: 94 % of control and 95 % of control
dose: 0.75 mg/kg/injection, schedule: Q03DX Z (ip), vehicle: saline
  T/C: 114 % of control
dose: 1.0 mg/kg/injection, schedule: Q01DX001 (ip), vehicle: saline
  T/C: 107 % of control
dose: 1.0 mg/kg/injection, schedule: Q01DX006 (iv), vehicle: saline
  T/C: 114 % of control
dose: 1.0 mg/kg/injection, schedule: Q01DX009 (ip), vehicle: saline
  T/C: 97 % of control
dose: 1.0 mg/kg/injection, schedule: Q01DX010 (ip), vehicle: saline
  T/C: 153 % of control
dose: 1.0 mg/kg/injection, schedule: Q01DX010 (iv), vehicle: saline
  T/C: 117 % of control
dose: 1.0 mg/kg/injection, schedule: Q01DX Z (ip), vehicle: carboxymethylcellulose (CMC)
  T/C: 166 % of control
dose: 1.0 mg/kg/injection, schedule: Q01DX Z (ip), vehicle: saline
  T/C: 158 % of control
dose: 1.0 mg/kg/injection, schedule: Q01DX Z (ip), vehicle: water
  T/C: 171 % of control
dose: 1.0 mg/kg/injection, schedule: Q01DX Z (oral), vehicle: saline
  T/C: 109 % of control
dose: 1.0 mg/kg/injection, schedule: Q#A X Z (ip), vehicle: saline
  T/C: 185 % of control
dose: 1.25 mg/kg/injection, schedule: Q04DX003 (ip), vehicle: Klucel (hydroxypropylcellulose) (HPC)
  T/C: 113 % of control
dose: 1.5 mg/kg/injection, schedule: Q03DX Z (ip), vehicle: saline
  T/C: 120 % of control
dose: 1.5 mg/kg/injection, schedule: Q#A X Z (ip), vehicle: saline
  T/C: 104 % of control
dose: 1.6 mg/kg/injection, schedule: Q01DX Z (ip), vehicle: saline
  T/C: 196 % of control
dose: 2.0 mg/kg/injection, schedule: Q01DX001 (ip), vehicle: saline
  T/C: 100 % of control and 124 % of control
dose: 2.0 mg/kg/injection, schedule: Q01DX006 (iv), vehicle: saline
  T/C: 109 % of control
dose: 2.0 mg/kg/injection, schedule: Q01DX010 (ip), vehicle: saline
  T/C: 93 % of control
dose: 2.0 mg/kg/injection, schedule: Q01DX Z (im), vehicle: saline
  T/C: 94 % of control and 118 % of control
dose: 2.0 mg/kg/injection, schedule: Q01DX Z (ip), vehicle: saline
  T/C: 122 % of control
dose: 2.0 mg/kg/injection, schedule: Q01DX Z (oral), vehicle: saline
  T/C: 120 % of control
dose: 2.0 mg/kg/injection, schedule: Q07DX Z (ip), vehicle: saline
  T/C: 124 % of control
dose: 2.0 mg/kg/injection, schedule: Q## X Z (ip), vehicle: saline
  T/C: 98 % of control
dose: 2.25 mg/kg/injection, schedule: Q#A X Z (ip), vehicle: saline
  T/C: 93 % of control
dose: 2.5 mg/kg/injection, schedule: Q01DX001 (ip), vehicle: saline
  T/C: 116 % of control and 202 % of control
dose: 3.0 mg/kg/injection, schedule: Q01DX006 (iv), vehicle: saline
  T/C: 120 % of control
dose: 3.0 mg/kg/injection, schedule: Q01DX Z (oral), vehicle: saline
  T/C: 120 % of control
dose: 3.0 mg/kg/injection, schedule: Q03DX Z (ip), vehicle: saline
  T/C: 155 % of control
dose: 3.2 mg/kg/injection, schedule: Q01DX Z (ip), vehicle: saline
  T/C: 121 % of control
dose: 4.0 mg/kg/injection, schedule: Q01DX001 (ip), vehicle: saline
  T/C: 105 % of control
dose: 4.0 mg/kg/injection, schedule: Q01DX010 (iv), vehicle: saline
  T/C: 108 % of control
dose: 4.0 mg/kg/injection, schedule: Q01DX Z (ip), vehicle: saline
  T/C: 97 % of control
dose: 4.0 mg/kg/injection, schedule: Q01DX Z (oral), vehicle: saline
  T/C: 118 % of control and 119 % of control
dose: 4.5 mg/kg/injection, schedule: Q01DX006 (iv), vehicle: saline
  T/C: 122 % of control
dose: 4.5 mg/kg/injection, schedule: Q01DX Z (im), vehicle: saline
  T/C: 117 % of control
dose: 4.5 mg/kg/injection, schedule: Q01DX Z (sc), vehicle: saline
  T/C: 175 % of control
dose: 4.8 mg/kg/injection, schedule: Q01DX Z (ip), vehicle: saline
  T/C: 95 % of control
dose: 5.0 mg/kg/injection, schedule: Q04DX003 (ip), vehicle: Klucel (hydroxypropylcellulose) (HPC)
  T/C: 96 % of control
dose: 6.0 mg/kg/injection, schedule: Q03DX Z (ip), vehicle: saline
  T/C: 152 % of control
dose: 6.5 mg/kg/injection, schedule: Q01DX006 (iv), vehicle: saline
  T/C: 170 % of control
dose: 6.5 mg/kg/injection, schedule: Q01DX Z (sc), vehicle: saline
  T/C: 157 % of control
dose: 8.0 mg/kg/injection, schedule: Q01DX001 (ip), vehicle: saline
  T/C: 109 % of control
dose: 8.6 mg/kg/injection, schedule: Q03DX Z (ip), vehicle: saline
  T/C: 194 % of control
dose: 9.5 mg/kg/injection, schedule: Q01DX006 (iv), vehicle: saline
  T/C: 157 % of control
dose: 10.0 mg/kg/injection, schedule: Q04DX003 (ip), vehicle: Klucel (hydroxypropylcellulose) (HPC)
  T/C: 110 % of control
dose: 13.0 mg/kg/injection, schedule: Q03DX Z (ip), vehicle: saline
  T/C: 124 % of control
dose: 16.0 mg/kg/injection, schedule: Q07DX Z (ip), vehicle: saline
  T/C: 158 % of control and 213 % of control
dose: 19.0 mg/kg/injection, schedule: Q03DX Z (ip), vehicle: saline
  T/C: 93 % of control
dose: 20.0 mg/kg/injection, schedule: Q04DX003 (ip), vehicle: Klucel (hydroxypropylcellulose) (HPC)
  T/C: 117 % of control
dose: 24.0 mg/kg/injection, schedule: Q01DX001 (ip), vehicle: saline
  T/C: 111 % of control
dose: 24.0 mg/kg/injection, schedule: Q07DX Z (ip), vehicle: saline
  T/C: 158 % of control
dose: 35.0 mg/kg/injection, schedule: Q01DX001 (ip), vehicle: saline
  T/C: 122 % of control
dose: 50.0 mg/kg/injection, schedule: Q07DX Z (ip), vehicle: saline
  T/C: 100 % of control
dose: 125.0 micrograms/kg/injection, schedule: Q01DX001 (ip), vehicle: saline
  T/C: 103 % of control
dose: 125.0 micrograms/kg/injection, schedule: Q01DX Z (ip), vehicle: saline
  T/C: 107 % of control
dose: 156.0 micrograms/kg/injection, schedule: Q01DX001 (ip), vehicle: saline
  T/C: 107 % of control
dose: 187.0 micrograms/kg/injection, schedule: Q01DX001 (ip), vehicle: saline
  T/C: 103 % of control
dose: 250.0 micrograms/kg/injection, schedule: Q01DX Z (ip), vehicle: saline
  T/C: 101 % of control
dose: 281.0 micrograms/kg/injection, schedule: Q01DX001 (ip), vehicle: saline
  T/C: 105 % of control
dose: 310.0 micrograms/kg/injection, schedule: Q01DX001 (ip), vehicle: saline
  T/C: 101 % of control
dose: 421.0 micrograms/kg/injection, schedule: Q01DX001 (ip), vehicle: saline
  T/C: 116 % of control
dose: 500.0 micrograms/kg/injection, schedule: Q01DX Z (ip), vehicle: saline
  T/C: 107 % of control
dose: 620.0 micrograms/kg/injection, schedule: Q01DX001 (ip), vehicle: saline
  T/C: 107 % of control
dose: 1250.0 micrograms/kg/injection, schedule: Q01DX001 (ip), vehicle: saline
  T/C: 110 % of control
dose: 2000.0 micrograms/kg/injection, schedule: Q01DX Z (ip), vehicle: saline
  T/C: 222 % of control
dose: 4000.0 micrograms/kg/injection, schedule: Q01DX Z (ip), vehicle: saline
  T/C: 205 % of control
